Assay results published in ChEMBL document CHEMBL4177573 (Bioorg Med Chem, 2017).
Square brackets hold non-standard residues; d marks the D form. Peptide text beside a SMILES is read from it. 4Pal = N[C@@H](Cc1ccncc1)C(=O)O; Cha = N[C@@H](CC1CCCCC1)C(=O)O; Aib = CC(C)(N)C(=O)O

Tests used:
[1] = target: T1, Neuropeptide Y receptor type 2 (Homo sapiens, UniProt P49146); assay: Displacement of [125I]-PYY from human neuropeptide Y2 receptor expressed in CHO cell membranes incubated for 60 mins by TopCount based method
T1 sequence (P49146 whole entry): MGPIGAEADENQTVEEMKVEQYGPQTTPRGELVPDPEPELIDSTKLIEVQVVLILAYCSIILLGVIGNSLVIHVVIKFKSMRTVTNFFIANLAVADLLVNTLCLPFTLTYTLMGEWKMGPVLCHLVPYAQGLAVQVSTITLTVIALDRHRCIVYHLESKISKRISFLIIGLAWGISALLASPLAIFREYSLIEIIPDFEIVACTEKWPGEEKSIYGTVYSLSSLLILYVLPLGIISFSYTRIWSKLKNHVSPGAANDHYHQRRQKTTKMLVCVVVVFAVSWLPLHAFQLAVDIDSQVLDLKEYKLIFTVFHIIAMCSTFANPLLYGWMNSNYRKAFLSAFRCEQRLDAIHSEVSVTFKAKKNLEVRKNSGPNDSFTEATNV

Mus musculus [2] = assay: Anorectic activity in C57BL/6J mouse assessed as inhibition of food intake at 1 mg/kg/day, sc for 3 days dosed as continuous administration by infusion using osmotic pump; assay type: functional; details: 72 h
[3] = target: T1, Neuropeptide Y receptor type 2; assay: Agonist activity at human neuropeptide Y2 receptor expressed in CHO cell membranes assessed as stimulation of [35S]GTPgammaS binding incubated for 120 mins by liquid scintillation counting method; assay type: functional
Mus musculus [4] = assay: Anorectic activity in C57BL/6J mouse assessed as inhibition of food intake at 0.1 mg/kg/day, sc for 3 days dosed as continuous administration by infusion using osmotic pump; assay type: functional; details: 72 h
Mus musculus [5] = assay: Anorectic activity in C57BL/6J mouse assessed as inhibition of food intake at 0.03 mg/kg/day, sc for 3 days dosed as continuous administration by infusion using osmotic pump; assay type: functional; details: 72 h
Mus musculus [6] = assay: Anorectic activity in C57BL/6J mouse assessed as inhibition of food intake at 0.3 mg/kg/day, sc for 3 days dosed as continuous administration by infusion using osmotic pump; assay type: functional; details: 72 h
[7] = MRT in C57BL/6J mouse at 1 mg/kg, iv measured during 5 mins to 24 hrs by LC/MS/MS method; assay type: ADME, organism-based; details: in vivo
[8] = Bioavailability in C57BL/6J mouse at 1 mg/kg, sc measured during 5 mins to 24 hrs by LC/MS/MS method; assay type: ADME, organism-based; details: in vivo
Mus musculus [9] = assay: Anorectic activity in C57BL/6J mouse assessed as inhibition of food intake at 0.3 mg/kg/day, sc dosed as […] and measured after 24 hrs; assay type: functional
[10] = AUC (0 to 24 hrs) in C57BL/6J mouse at 1 mg/kg, sc measured during 5 mins to 24 hrs by LC/MS/MS method; assay type: ADME, organism-based; design: time < 24 hr, dose 1 mg/kg, route subcutaneous; details: in vivo
[11] = AUC (0 to 24 hrs) in C57BL/6J mouse at 1 mg/kg, iv measured during 5 mins to 24 hrs by LC/MS/MS method; assay type: ADME, organism-based; design: dose 1 mg/kg, time < 24 hr, route intravenous; details: in vivo
[12] = Volume of distribution at steady state in C57BL/6J mouse at 1 mg/kg, iv measured during 5 mins to 24 hrs by LC/MS/MS method; assay type: ADME, organism-based; details: in vivo, read-out: Vdss
Mus musculus [13] = assay: Drug level in C57BL/6J mouse at 1 mg/kg, iv measured during 5 mins to 24 hrs by LC/MS/MS method; assay type: ADME, organism-based; details: in vivo, read-out: Drug uptake
Mus musculus [14] = assay: Antiobesity activity in DIO C57BL/6J mouse assessed as reduction in body weight at 1 mg/kg, sc […] for 2 weeks dosed by infusion of osmotic pumps; assay type: functional; details: 336 h
[15] = Total clearance in C57BL/6J mouse at 1 mg/kg, iv measured during 5 mins to 24 hrs by LC/MS/MS method; assay type: ADME, organism-based; details: in vivo
[16] = Tmax in C57BL/6J mouse at 1 mg/kg, sc measured during 5 mins to 24 hrs by LC/MS/MS method; assay type: ADME, organism-based; details: in vivo
[17] = MRT in C57BL/6J mouse at 1 mg/kg, sc measured during 5 mins to 24 hrs by LC/MS/MS method; assay type: ADME, organism-based; details: in vivo
Mus musculus [18] = assay: Antiobesity activity in DIO C57BL/6J mouse assessed as reduction in body weight at 0.01 mg/kg, sc for 2 weeks dosed as continuous administration by infusion of osmotic pumps; assay type: functional; details: 336 h
[19] = Cmax in C57BL/6J mouse at 1 mg/kg, sc measured during 5 mins to 24 hrs by LC/MS/MS method; assay type: ADME, organism-based; design: dose 1 mg/kg, route subcutaneous; details: in vivo
Mus musculus [20] = assay: Anorectic activity in C57BL/6J mouse assessed as inhibition of food intake at 0.3 mg/kg/day, sc dosed as […] and measured after 12 hrs; assay type: functional

SMILES: CC(C)C[C@H](NC(=O)[C@H](CC(N)=O)NC(=O)[C@H](CC1CCCCC1)NC(=O)[C@H](CC1CCCCC1)NC(=O)[C@H](Cc1cnc[nH]1)NC(=O)[C@H](CCCNC(=N)N)NC(=O)[C@H]1CCCN1C(=O)[C@H](CO)NC(=O)C(C)C)C(=O)NC(C)(C)C(=O)N[C@H](C(=O)N[C@@H](CCCNC(=N)N)C(=O)N[C@@H](CCC(N)=O)C(=O)N[C@@H](CCCNC(=N)N)C(=O)N[C@@H](CC1CCCCC1)C(N)=O)[C@@H](C)O
- IC50 [1]: 1.3 nM
- inhibition in vivo at 1 mg/kg/day (Mus musculus [2]): 46%
- EC50 [3]: 0.49 nM

SMILES: CC(=O)N[C@@H](CO)C(=O)NC(C)(C)C(=O)N[C@@H](CCCNC(=N)N)C(=O)N[C@@H](Cc1ccncc1)C(=O)N[C@@H](CC1CCCCC1)C(=O)NC(C)(C)C(=O)N[C@@H](CC(N)=O)C(=O)N[C@@H](CCCCN)C(=O)NC(C)(C)C(=O)N[C@H](C(=O)N[C@@H](CCCNC(=N)N)C(=O)N[C@@H](CCC(N)=O)C(=O)N[C@@H](CCCNC(=N)N)C(=O)N[C@@H](CC1CCCCC1)C(N)=O)[C@@H](C)O (Ac-S[Aib]R[4Pal][Cha][Aib]NK[Aib]TRQR[Cha]-NH2)
- IC50 [1]: 0.41 nM
- inhibition in vivo at 0.1 mg/kg/day (Mus musculus [4]): 95%
- inhibition in vivo at 0.03 mg/kg/day (Mus musculus [5]): 36%
- EC50 [3]: 0.13 nM

SMILES: CC[C@@](C)(NC(=O)[C@H]1CCCN1C(=O)[C@H](CO)NC(C)=O)C(=O)N[C@@H](Cc1cnc[nH]1)C(=O)N[C@@H](CC1CCCCC1)C(=O)N[C@@H](CC1CCCCC1)C(=O)N[C@@H](CC(N)=O)C(=O)N[C@@H](CC(C)C)C(=O)NC(C)(C)C(=O)N[C@H](C(=O)N[C@@H](CCCNC(=N)N)C(=O)N[C@@H](CCC(N)=O)C(=O)N[C@@H](CCCNC(=N)N)C(=O)N[C@@H](CC1CCCCC1)C(N)=O)[C@@H](C)O
- inhibition in vivo at 0.3 mg/kg/day (Mus musculus [6]): 33%
- IC50 [1]: 3.8 nM
- EC50 [3]: 0.5 nM

SMILES: CC(C)C[C@H](NC(=O)[C@H](CC(N)=O)NC(=O)[C@H](CC1CCCCC1)NC(=O)[C@H](CC1CCCCC1)NC(=O)[C@H](Cc1cnc[nH]1)NC(=O)[C@H](CCCNC(=N)N)NC(=O)[C@H]1CCCN1C(=O)[C@H](CO)NC(=O)c1ccccc1)C(=O)NC(C)(C)C(=O)N[C@H](C(=O)N[C@@H](CCCNC(=N)N)C(=O)N[C@@H](CCC(N)=O)C(=O)N[C@@H](CCCNC(=N)N)C(=O)N[C@@H](CC1CCCCC1)C(N)=O)[C@@H](C)O
- IC50 [1]: 1.5 nM
- inhibition in vivo at 1 mg/kg/day (Mus musculus [2]): 7%
- EC50 [3]: 0.8 nM

SMILES: CC[C@](C)(NC(=O)[C@H](CC1CCCCC1)NC(=O)[C@H](Cc1ccncc1)NC(=O)[C@](C)(CC)NC(=O)[C@H]1C[C@H](O)CN1C(=O)[C@H](CO)NC(C)=O)C(=O)N[C@@H](CC(N)=O)C(=O)N[C@@H](CCCCN)C(=O)NC(C)(C)C(=O)N[C@H](C(=O)N[C@@H](CCCNC(=N)N)C(=O)N[C@@H](CCC(N)=O)C(=O)N[C@@H](CCCNC(=N)N)C(=O)N[C@@H](CC1CCCCC1)C(N)=O)[C@@H](C)O
- MRT [7]: 21 min
- bioavailability [8]: 108%
- inhibition in vivo at 0.3 mg/kg/day (Mus musculus [9]): 23%
- AUC(0-t) at 24 h [10]: 0.469 µM·h
- IC50 [1]: 0.46 nM
- AUC(0-t) at 24 h [11]: 0.435 µM·h
- Vd [12]: 0.41 L/kg
- concentration (Mus musculus [13]): 1660 nM
- inhibition in vivo at 1 mg/kg (Mus musculus [14]): 1.7%
- clearance [15]: 19.5 mL/min/kg
- Tmax [16]: 15 min
- inhibition in vivo at 0.03 mg/kg/day (Mus musculus [5]): 56%
- EC50 [3]: 0.17 nM
- MRT [17]: 31.2 min
- inhibition in vivo at 0.01 mg/kg (Mus musculus [18]): 5%
- Cmax [19]: 666 nM
- inhibition in vivo at 0.3 mg/kg/day (Mus musculus [20]): 38%
